Test results as given in US10718028B2, “Fluorescent probes for abasic site detection” (CASE WESTERN RESERVE UIVERSITY, priority 2015, dated 2020).

Experiments:
AP DNA = experiment: SSB activity assay, dose-response of AP site binding probes; type: biochemical; settings: 5 pmol AP DNA, FIG. 1
Description: FIG. 1 illustrates SSB activity assay is used to compare the dose-response of AP site binding probes in 5 pmol of AP DNA. Mean and standard deviation of triplicate samples are shown for each concentration.
The single strand break (SSB) assay was proposed as a quick, facile tool to screen AP site binding probes. Therefore, the assay was performed on novel AP site binding probes described above and the commercially available AP site binding probe, F422. […] The reduced response of F422 and DansylMX may be due in part to the compounds being fairly electron rich near the aminooxy binding moiety. This could lead to a Coulombic repulsion with the DNA phosphate backbone.
SSB activity assays were performed on a 40-mer duplex DNA synthesized by IDT with the sequence:
SSB Activity Assay Control Reactions

[1] = Fluorescence and absorbance properties of Cy7MX in various solvents (Example 1); type: physicochemical
Description: (§1) NMR spectra were recorded on a Varian Mercury 300 MHz, a Varian Inova 400, and a Varian Inova 600 MHz spectrometer at room temperature, except where otherwise noted. Chemical shifts for 1H NMR were reported as 6, parts per million, and referenced to CHCl3 at 7.26 ppm or TMS at 0 ppm. Chemical shifts for ^13C NMR were reported as 6 and referenced to the center line of the CDCl3 triplet at 77.0 ppm or CH2Cl2 pentet at 54.0 ppm. Low resolution mass spectra were recorded on a ThermoScientific LCQ Advantage or a Finnigan LCQ Deca mass spectrometer. Fluorescence data were collected on a Varian Cary Eclipse fluorescence spectrophotometer in a quartz cuvette with a 1 cm pathlength or on a Tecan Infinite M200 scanner. Absorbance data were collected on a Varian Cary 50 Bio UV-Visible Spectrophotometer in a quartz cuvette with a 1 cm path length.
Fluorescent quantum yields were determined by a comparative method to an indocyanine green (ICG) standard (Φ=0.132 in EtOH) with refractive index correction according to Equation 1:
[formula] • where Φ is the quantum yield; F is the integrated fluorescence intensity (area); A is the absorbance; n is the refractive index of the solvent (ethanol, 1.3611; acetonitrile, 1.3442; water, 1.333; and chloroform, 1.4459); and R is the reference sample, ICG in EtOH. Sample and reference fluorophores were excited at 700 nm and emission spectra integrated from 705 to 1000 nm and absorption measurements were collected at 700 nm. Data were collected in a quartz cuvette with a 1 cm pathlength. Absorbance maxima for each sample were kept at or below 0.2 absorbance units to avoid inner filter effects. Solvents used were spectroscopic grade ethanol and HPLC grade acetonitrile, HPLC grade chloroform, and HPLC grade water. For the water solution, Cy7MX was first dissolved first in MeCN and diluted at least 200 fold. Synthesis of Compounds for AP Site Detection
Further characterization was conducted for Cy7MX (Table 2), Cy7MX, because it was chosen for extensive investigation in biological studies. The absorption and emission spectra were collected in polar protic (water and ethanol), polar aprotic (acetonitrile), and relatively nonpolar (chloroform) solvents. […] The extinction coefficient and the fluorescence quantum yields for Cy7MX compared favorably to other heptamethine cyanine dyes.

[2] = tested on: AP sites in calf thymus AP DNA; experiment: Genomic DNA time course of Cy7MX binding; settings: heat/acid treated DNA, 37° C.
Description: Calf thymus DNA was purchased from Sigma and was reconstituted overnight at 4° C. in either H2O or 500 mM MX (to eliminate basal AP sites) with gentle shaking (1.5 mL water or solution per 5 mg DNA). For samples reconstituted in MX solution, an ethanol precipitation was performed twice before heat and acid treatment (vide infra) then reconstituted in water. The DNA-water solution was aliquoted to 1.5 mL Eppendorf tubes (360 μL) and 10× Citrate buffer (1M NaCl, 100 μM monosodium phosphate, 100 μM monosodium citrate, pH 5.0) was added to a final concentration of 1×. For t=0 min samples, ice-cold 100% EtOH (1.0 mL) was added immediately and the Eppendorf tubes stored at −20° C. Other samples were placed in a 70° C. heating block for 15-90 minutes in 15-minute increments. Samples were removed from heat, precipitated in ice-cold 100% EtOH (1.0 mL), and then chilled at −20° C. for at least 20 minutes. Samples were centrifuged at 12,000×G for 10 min at 4° C. The supernatant was discarded. The process was repeated once beginning with the addition of EtOH (1.0 mL). The DNA pellet was dissolved in 700 μL H2O or TE buffer. […]
A 100 mM stock solution of Cy7MX in DMSO was diluted to 25 μM in H2O. […] Aliquots (125 μL) of the samples were added to a black, clear-bottom 96 well plate (Corning) and analyzed with 750 nm excitation and 800 nm emission. Fluorescence was adjusted to DNA concentration.

[3] = Absorption and emission spectra of AP site binding probes in ethanol; type: physicochemical
Description: as §1
To characterize the fluorescent properties, the absorption and emission spectra were collected for all final compounds.

For `CCCN1/C(=C/C=C2\CCCC(/C=C/C3=[N+](CCC)c4ccccc4C3(C)C)=C2Oc2ccc(CC(=O)NCCCON)cc2)C(C)(C)c2ccccc21` [Cy7MX, 2-((E)-2-((E)-2-(4-(2-((3-(aminooxy)propyl)amino)-2-oxoethyl)phenoxy)-3-((E)-2-(3,3-dimethyl-1-propylindolin-2-ylidene)ethylidene)cyclohex-1-en-1-yl)vinyl)-3,3-dimethyl-1-propyl-3H-indol-1-ium 2,2,2-trifluoroacetate], the “dose-response and overall efficacy in SSB assay” value (AP DNA) was “acceptable dose-response and overall efficacy”, the Φ ([1]; CHCl3) was 32.6% and the λabs ([1]; CHCl3) was 770 nm. The λem ([1]; CHCl3) was 791 nm, the Φ ([1]; EtOH) was 36.3% and the ε ([1]; EtOH) was 127,000 M^−1cm^−1. The λabs ([1]; EtOH) was 770 nm, the λem ([1]; EtOH) was 796 nm and the Φ ([1]; H2O) was 6.3%. For the same molecule, the ε ([1]; H2O) was 140,000 M^−1cm^−1, the λabs ([1]; H2O) was 767 nm and the λem ([1]; H2O) was 790 nm. The Φ ([1]; MeCN) was 45.9%, the ε ([1]; MeCN) was 154,000 M^−1cm^−1 and the λabs ([1]; MeCN) was 767 nm. The λem ([1]; MeCN) was 789 nm, the solvatochromism ([1]; water, ethanol, acetonitrile, chloroform) was “No solvatochromism was observed” and the “time to complete reaction” value [2] was “approximately 10 min”. For the same molecule, the Stokes shift [3] was 20 nm, the λabs max [3] was 770 nm and the λem max [3] was 796 nm.
